Series [1] deals with T1, hCB2R (Homo sapiens, UniProt P34972).
T1 construct: host or cells: CHO cells, stably transfected
Briefly: Competitive radioligand binding assay, displacement of [3H]WIN55212-2 from homogenates of hCB2R-CHO cells. To be noted: for Ki: read-out: CB2R Ki; for CB2R binding affinity, in words: hCB2R, discussion of Table 1. How it is done:
(§1) The binding affinity of the herein described compounds toward the human CB2R was determined by a competitive radioligand binding assay according to the established in-house protocol using cell homogenates obtained from CHO cells stably transfected with hCB2R (hCB2R-CHO).[53],[73] For compounds binding with high affinity to hCB2R, the affinity toward CB1R was determined as well by radioligand displacement studies performed either with homogenates obtained from the mouse brain or hCB1R-CHO cells.
(§2) The binding affinities toward hCB1R and hCB2R were determined according to a previously published protocol.[22] In brief, membrane preparations obtained from CHO cell lines stably transfected with either human CB1R (hCB1R-CHO; obtained from Euroscreen, Gosselies, Belgium) or human CB2R (hCB2R-CHO; obtained from Paul L. Prather, Department of Pharmacology and Toxicology, College of Medicine, University of Arkansas for Medical Sciences, USA) were incubated with [^3H]SR141716A (1,554 GBq/mmol; PerkinElmer Life and Analytical Sciences, Rodgau, Germany; final concentration ∼2 nM) or [^3H]WIN55212-2 (6,438 GBq/mmol; PerkinElmer Life and Analytical Sciences, Rodgau, Germany; final concentration ∼3 nM) and the respective test compounds at different concentrations (final concentration 10^–5–10^–11 M) diluted from DMSO stock solutions (1% DMSO final concentration) in incubation buffer (50 mM TRIS-HCl, pH 7.4, supplemented with 0.1% bovine serum albumin, 5 mM MgCl2, and 1 mM EDTA) at rt for 90 min.
(§3) The nonspecific binding of the respective radioligand was determined by coincubation with CP55,940 (final concentration 10^–5 M). The normalized values of bound activity (% specific binding) were calculated and plotted vs the logarithm of the concentration of the respective test compound. The IC50 values of the resulting inhibition curves were estimated by nonlinear regression analysis (GraphPad Prism 2.01). To calculate the Ki, the equation of Cheng and Prusoff was used. For homologous competition experiments, Ki = KD.[38]
On the technique in general: In a radioligand displacement assay an active substance lowers the binding of a labelled ligand.

Series [2] concerns the target T2, hCB1R (Homo sapiens, UniProt P21554).
T2 construct: host or cells: CHO cells, stably transfected
Kind of series: Radioligand displacement assay, [3H]SR141716A from homogenates of hCB1R-CHO cells. In kind it is binding. How it is done: as §1, §2, §3

The test system of series [3] is CB2R. To be noted: cited from earlier work.
For series [4], the target named is T3, hCB2R(D80N) (Homo sapiens, UniProt P34972, D80N).
T3 construct: expressed in transfected cells; host or cells: neurons of the right striatum of male Wistar rats, transduced in vivo with the AAV2/7-CaMKII0.4-intron-hCB2R(D80N) vector
T3 sequence (P34972 whole entry D80N): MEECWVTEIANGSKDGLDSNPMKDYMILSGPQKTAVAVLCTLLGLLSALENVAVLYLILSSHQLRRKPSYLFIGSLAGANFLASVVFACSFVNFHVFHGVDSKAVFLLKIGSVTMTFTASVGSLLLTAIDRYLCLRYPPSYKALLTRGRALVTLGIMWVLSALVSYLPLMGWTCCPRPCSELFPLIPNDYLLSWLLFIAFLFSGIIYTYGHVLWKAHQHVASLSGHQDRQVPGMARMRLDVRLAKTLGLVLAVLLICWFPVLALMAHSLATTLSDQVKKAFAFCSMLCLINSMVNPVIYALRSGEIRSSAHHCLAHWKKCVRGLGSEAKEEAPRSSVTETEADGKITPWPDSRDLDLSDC
Also on record: method as in earlier work. To be noted: same animal model, previously evaluated; ref 83 ([18F]LU14), 31 ([18F]LU13); cited from earlier work.

The mark [5] stands for this setting: hCB2R-CHO homogenates, displacement of [3H]WIN55.2212-2.
The mark [6] stands for this setting: hCB1R-CHO homogenates, displacement of [3H]SR141716A, read-out: CB1R Ki.
[7] abbreviates: Figure 1, ref 28 (DM102), 29, 30 (RoSMA-18-d6), 31 (LU13), 33 (LUZ5-d8).
Setting [8] is: Figure 1, ref 28 (DM102), 29, 30 (RoSMA-18-d6), 31 (LU13), 33 (LUZ5-d8), read-out: KiCB2R.
Setting [9] is: enantiomer obtained by chiral HPLC separation (Scheme 1), hCB2R-CHO, [3H]WIN55.2212-2.

Several values for one entry are separate records, joined by “and”; a condition that tells them apart may be missing. Equal values may be shown once. Entries after “also recorded” stand apart in the source; their conditions may differ. Read-outs that look alike come from different tables or passages of the source.

T1 sequence (P34972 whole entry): as the sequence (P34972 whole entry D80N) above, with N80D counted along it
T2 sequence (P21554 whole entry): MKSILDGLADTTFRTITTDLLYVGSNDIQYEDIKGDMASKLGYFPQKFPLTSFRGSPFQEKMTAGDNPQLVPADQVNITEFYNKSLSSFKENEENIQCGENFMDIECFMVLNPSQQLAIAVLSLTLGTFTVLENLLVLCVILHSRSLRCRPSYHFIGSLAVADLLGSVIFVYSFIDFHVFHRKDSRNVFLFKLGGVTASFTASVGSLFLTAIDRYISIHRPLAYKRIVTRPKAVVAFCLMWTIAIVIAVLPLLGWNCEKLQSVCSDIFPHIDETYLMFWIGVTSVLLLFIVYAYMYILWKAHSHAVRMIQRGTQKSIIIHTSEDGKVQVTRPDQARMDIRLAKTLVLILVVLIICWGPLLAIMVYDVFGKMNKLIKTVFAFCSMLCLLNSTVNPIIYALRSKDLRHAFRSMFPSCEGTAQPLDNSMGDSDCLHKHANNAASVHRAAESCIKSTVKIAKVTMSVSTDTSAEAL

Turning to `CC1(C)Cc2ccc(C#N)cc2C1NC(=O)c1cc2cc(F)ccc2[nH]1` (racemic) [Compound (±)-6, (rac)-N-(6-Cyano-2,2-dimethyl-2,3-dihydro-1H-inden-1-yl)-5-fluoro-1H-indole-2-carboxamide], the Ki turned out to be 3 nM in series [1] (setting [5]) and 842 nM in series [2] (setting [6]).
Regarding `CC1(C)Cc2ccc(C#N)cc2[C@@H]1NC(=O)c1cc2cc(OCCF)ccc2[nH]1` [Compound 19D, (R)-N-(6-Cyano-2,2-dimethyl-2,3-dihydro-1H-inden-1-yl)-5-(2-fluoroethoxy)-1H-indole-2-carboxamide], the “CB2R binding affinity, in words” value in series [1] is given as “slightly decreased the affinity”. Also, the Ki was 29.9 ± 3.39 nM in series [1] (setting [5]) and greater than 1000 nM in series [2] (setting [6]).
As for `[2H]C([2H])([18F])C([2H])([2H])C([2H])([2H])OC(=O)C(CC)(CC)NC(=O)c1ccc(N2CC(OC)C2)c(OC[C@H]2C[C@@H]2CO)n1` [[^18F]RoSMA-18-d6], the KiCB1R/KiCB2R in series [3] (setting [7]) was greater than 10000. Moreover, the Ki in series [3] (setting [8]) is 0.8 nM.
Take “(R)-N-(6-Cyano-2,2-dimethyl-2,3-dihydro-1H-inden-1-yl)-6-fluoro-1H-indole-2-carboxamide [Compound 19C]”: the Ki in series [1] (setting [5]) is 6.49 nM; in series [2] (setting [6]) it was greater than 1000 nM.
In the case of `CC1(C)Cc2ccc(C#N)cc2[C@@H]1NC(=O)c1cc2ccc(F)cc2[nH]1` [Compound 19B, (R)-N-(6-Cyano-2,2-dimethyl-2,3-dihydro-1H-inden-1-yl)-6-fluoro-1H-indole-2-carboxamide], the Ki in series [1] (setting [5]) is 15.9 nM; in series [2] (setting [6]), greater than 1000 nM.
For `CC1(C)Cc2ccc(C#N)cc2[C@@H]1NC(=O)c1nc2cc(F)ccc2[nH]1` [Compound 19G, (R)-N-(6-Cyano-2,2-dimethyl-2,3-dihydro-1H-inden-1-yl)-5-fluoro-1H-benzo[d]imidazole-2-carboxamide], the “CB2R binding affinity, in words” value in series [1] is reported as “high CB2R affinity”. Besides, the Ki in series [1] (setting [5]) was 7.18 nM; in series [2] (setting [6]), greater than 100 nM.
On to `CC1(C)Cc2ccc(C#N)cc2[C@@H]1NC(=O)c1cc2cc(F)ccc2s1` [Compound 19H, (R)-N-(6-Cyano-2,2-dimethyl-2,3-dihydro-1H-inden-1-yl)-5-fluorobenzo[b]thiophene-2-carboxamide], for which the “CB2R binding affinity, in words” value in series [1] is on record as “high CB2R affinity”. The Ki was 6.98 ± 3.43 nM in series [1] (setting [5]) and greater than 100 nM in series [2] (setting [6]).
As to `CC1(C)Cc2ccc(OCCCF)cc2[C@@H]1NC(=O)c1cc2cc(F)ccc2[nH]1` [Compound 21B, (R)-5-Fluoro-N-(6-(3-fluoropropoxy)-2,2-dimethyl-2,3-dihydro-1H-inden-1-yl)-1H-indole-2-carboxamide], the “CB2R binding affinity, in words” value in series [1] is recorded as “slightly reduced affinity”. The results for the Ki in series [1] (setting [5]) and in series [2] (setting [6]) were 78.1 nM and greater than 1000 nM, respectively.
`Cc1c(C(=O)N[C@H]2c3cc(C#N)ccc3CC2(C)C)[nH]c2ccc(F)cc12` [Compound 19F, (R)-N-(6-Cyano-2,2-dimethyl-2,3-dihydro-1H-inden-1-yl)-5-fluoro-3-methyl-1H-indole-2-carboxamide]: the “CB2R binding affinity, in words” value in series [1] was “deleterious effect on the binding affinity”. The Ki in series [1] (setting [5]) was 336 nM; in series [2] (setting [6]) it was greater than 100 nM.
For the molecule `CC1(C)Cc2ccc(OCCF)cc2[C@@H]1NC(=O)c1cc2cc(F)ccc2[nH]1` [Compound 21A, (R)-5-Fluoro-N-(6-(2-fluoroethoxy)-2,2-dimethyl-2,3-dihydro-1H-inden-1-yl)-1H-indole-2-carboxamide], in series [1], the “CB2R binding affinity, in words” value is recorded as “slightly reduced affinity”. The Ki was 50 nM in series [1] (setting [5]) and greater than 100 nM in series [2] (setting [6]).
Regarding `CC12CCC(C1)C(C)(C)C2NC(=O)c1cc2cc(F)ccc2[nH]1` (stereo not shown) [Compound 21D], in series [1], the “CB2R binding affinity, in words” value was “loss of CB2R binding”. Besides, the Ki in series [1] (setting [5]) and in series [2] (setting [6]) was greater than 1000 nM in each case.
`CC1(C)Cc2ccc(C(N)=O)cc2[C@@H]1NC(=O)c1cc2cc(F)ccc2[nH]1` [Compound 21C, (R)-N-(6-Carbamoyl-2,2-dimethyl-2,3-dihydro-1H-inden-1-yl)-5-fluoro-1H-indole-2-carboxamide]: the Ki in series [1] (setting [5]) and in series [2] (setting [6]) was greater than 1000 nM in each case.
As to `CC1(C)Cc2ccc(C#N)cc2[C@@H]1NC(=O)c1cc2cc(OCCCF)ccc2[nH]1` [Compound 19E, (R)-N-(6-Cyano-2,2-dimethyl-2,3-dihydro-1H-inden-1-yl)-5-(3-fluoropropoxy)-1H-indole-2-carboxamide], in series [1], the “CB2R binding affinity, in words” value is “slightly decreased the affinity”. Moreover, the Ki in series [1] (setting [5]) is 15.6 ± 3.85 nM; in series [2] (setting [6]), greater than 100 nM; in series [2] (supplement, formula strings sheet, read-out: CB1RKi), greater than 1000 nM.
For `CC1(C)Cc2ccc(C#N)cc2C1NC(=O)c1cc2cc(F)ccc2[nH]1` (stereo not drawn) [Compound (+)-6], the Ki in series [1] (setting [9]) and in series [2] (setting [6]) was greater than 1000 nM each time. Further, the “CB2R binding affinity, in words” value in series [1] was “inactive; also recorded: no binding”.
With `CC1(C)Cc2ccc(C#N)cc2[C@@H]1NC(=O)c1cc2c(F)cccc2[nH]1` [Compound 19A, (R)-N-(6-Cyano-2,2-dimethyl-2,3-dihydro-1H-inden-1-yl)-4-fluoro-1H-indole-2-carboxamide], the Ki is 3.41 nM in series [1] (setting [5]) and greater than 1000 nM in series [2] (setting [6]).
For `CC1(C)Cc2ccc(C#N)cc2[C@@H]1NC(=O)c1cc2cc(F)ccc2[nH]1` [Compound (–)-6, (R)-N-(6-Cyano-2,2-dimethyl-2,3-dihydro-1H-inden-1-yl)-5-fluoro-1H-indole-2-carboxamide], in series [1] (CB2R over CB1R), the “selectivity over CB1R (factor)” value is recorded as greater than 300. The Ki is 3.53 nM in series [1] (compound obtained by enantioselective synthesis (Scheme 2), hCB2R-CHO, [3H]WIN55.2212-2); 2.1 nM and 2.19 nM in series [1] (setting [9]); 0.24 nM in series [3] (reported value, read-out: CB2R Ki); 965 nM in series [2] (compound obtained by enantioselective synthesis (Scheme 2), hCB1R-CHO, [3H]SR141716A, read-out: CB1R Ki); 827 nM in series [2] (enantiomer obtained by chiral HPLC separation (Scheme 1), hCB1R-CHO, [3H]SR141716A, read-out: CB1R Ki). The “CB2R binding affinity, in words” value in series [1] is given as “binding affinity in the same range”.
In the case of `O=C(NC12CC3CC(CC(C3)C1)C2)c1cc2cc(F)ccc2[nH]1` [Compound 21E, N-(Adamantan-1-yl)-5-fluoro-1H-indole-2-carboxamide], the “CB2R binding affinity, in words” value in series [1] is “loss of CB2R binding”. Moreover, the Ki in series [1] (setting [5]) and in series [2] (setting [6]) was greater than 1000 nM throughout.
`CC1(C)C(C(=O)c2cn(CCC[18F])c3ccccc23)C1(C)C` [[^18F]DM102]: the KiCB1R/KiCB2R in series [3] (setting [7]) is recorded as 440. Also, in series [3] (setting [8]), the Ki is 7.8 nM.
In the case of `[2H]C([2H])([18F])C([2H])([2H])C([2H])([2H])C([2H])([2H])n1c(=O)c(C(=O)NC23CC4CC(CC(C4)C2)C3)cc2cccnc21` [[^18F]LU13], the “TAC peak SUV in target region” value in series [4] is 3.6. In series [3] (setting [7]), the KiCB1R/KiCB2R is given as greater than 1000. For the same molecule, the Ki in series [3] (setting [8]) is 0.6 nM.

The values are drawn from PMC10614203, “Synthesis, Structure–Activity Relationships, Radiofluorination, and Biological Evaluation of [^18F]RM365, a Novel Radioligand for Imaging the Human Cannabinoid Receptor Type 2 (CB2R) in the Brain with PET” (Journal of Medicinal Chemistry, 2023).
